Laboratory results taken from patent US10392352B2, “Etomidate derivative and intermediate, preparation method and use thereof” (JIANGSU NHWALUOKANG PHARMACEUTICAL RESEARCH AND DEVELOPMENT …, priority 2015, dated 2019).

What was measured:
[1] = background, literature; cited from earlier work
[2] = system: secretion of cortisol and/or corticosterone; conditions: background, literature; cited from earlier work
[3] = Test of ED50 and LD50 of anesthesia in mice (sequential method; disappearance of righting reflex or death); assay type: in vivo; conditions: mouse, in vivo; male KM mice, caudal vein injection over 10 s, death, n = 10-20; range in brackets
Description: (§1) Test of ED50 and LD50 of the etomidate derivative of the present invention in mice
(§2) Accurately weighed compounds 14, 15, 16 and 18 (5 mg for each of the compounds) were placed in 10 ml centrifuge tubes, respectively. Then 1 ml blank emulsion (20% soybean oil blank emulsion) was added to each tube, and the mixture was sonicated in an ultrasonic apparatus for several minutes to obtain a 5 mg/ml homogeneous emulsion, which was drawn by an injection syringe right before use. An etomidate fat emulsion injection (commercially available, 2 mg/ml) was used as control. The administration concentration in mice was fixed, and the administration volume varied according to actual situation.
(§3) ED50 and LD50 values concerning anesthesia were determined using a sequential method. Administrations in this test were performed on qualified healthy KM mice (male) by injection at a constant rate via caudal vein for 10 seconds. Before the test, a preliminary trial test was conducted to determine an approximate dosage (administration volume) that leads to anesthetization (or death) in animals, which was then set as the intermediate dosage in the formal test. 2-3 Dosage groups were set above and below the intermediate dosage group with an interval of 0.8. The disappearance of righting reflex or death was used as indicators of pharmacological efficacy or toxicity, respectively. The formal test began with the administration of the intermediate dosage. If animals were anesthetized, a lower dosage was administered; otherwise if animals were not anesthetized, a higher dosage was administered, until the cycle was repeated for 3-4 times. LD50 and ED50 values of anesthesia were calculated by a sequential method on aot425 software. TI was calculated according to the following equation: TI=LD50/ED50.

KM mice (male) = experiment: as above; assay type: in vivo; conditions: for ED50: Mus musculus; for TI: TI=LD50/ED50, mice
Description: as §1, §2, §3

Male Kunming mice = experiment: Test for latent period and persistent period of anesthesia in mice; assay type: in vivo; conditions: 6 mg/kg (3*ED50), caudal vein, n = 5; for Latent period: time for disappearance of righting reflex; for Persistent period: time for recovery
Description: Test of the etomidate derivative of the present invention for latent period and persistent period of anesthesia in mice
Male Kunming mice were divided into groups, 5 for each group. The test drug was administered by injection at a constant rate via caudal vein for 10 seconds. The time for disappearance of righting reflex (latent period) and the time for recovery (persistent period) were recorded.

mice = experiment: Influence on the blood pressure and followed-up reactions after recovery in mice anesthesia test; assay type: in vivo; conditions: for grooming / tail bleeding: few / tail bleeding: much / tail bleeding: none / tremor: after administration & before anesthesia
11β-hydroxylase = target: T1, 11β-hydroxylase (Homo sapiens, UniProt P15538); conditions: background statement; cited from earlier work
T1 sequence (P15538 25-503): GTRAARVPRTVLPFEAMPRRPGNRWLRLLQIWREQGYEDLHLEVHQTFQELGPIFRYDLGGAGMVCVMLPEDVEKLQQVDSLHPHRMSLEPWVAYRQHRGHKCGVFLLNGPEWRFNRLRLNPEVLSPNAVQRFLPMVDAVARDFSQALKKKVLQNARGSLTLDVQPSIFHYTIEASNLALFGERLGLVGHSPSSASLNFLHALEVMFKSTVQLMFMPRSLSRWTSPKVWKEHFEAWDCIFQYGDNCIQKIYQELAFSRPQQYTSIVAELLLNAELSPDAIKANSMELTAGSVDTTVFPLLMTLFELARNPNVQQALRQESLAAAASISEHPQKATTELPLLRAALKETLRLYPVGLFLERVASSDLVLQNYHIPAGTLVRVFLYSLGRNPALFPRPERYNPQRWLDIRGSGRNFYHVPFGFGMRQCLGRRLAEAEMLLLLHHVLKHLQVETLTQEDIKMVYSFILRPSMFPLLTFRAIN

## COC(=O)CCOC(=O)c1cncn1[C@H](C)c1ccccc1 [Formula 7, Methoxycarbonyl-etomidate]
[1]
  anesthetic effect / activity: drastically decreased anesthetic effect
[2]
  inhibitory effect on the secretion of cortisol and/or corticosterone: lower inhibitory effect

## CCOC(=O)c1cncn1[C@H](C)c1ccccc1 [Etomidate, ethyl R-(+)-1-(1-phenethyl)-1H-imidazole-5-carboxylate]
[3]
  LD50: 50.3 mg/kg
KM mice (male)
  ED50: 2 mg/kg
  TI: 25
Male Kunming mice
  Walking time: 156.30 ± 120.78 s
  Latent period: 5.40 ± 0.52 s
  Persistent period: 175.50 ± 100.09 s
mice
  grooming: 20%
  tail bleeding: few: 50%
  tail bleeding: much: 10%
  tail bleeding: none: 40%
  tremor: 80%
mice; post-recovery
  convulsion: 10%
  jump: 40%
  quiet: 50%
11β-hydroxylase
  inhibitory effect on 11β-hydroxylase: inhibitory effect
[2]
  inhibitory effect on the secretion of cortisol and/or corticosterone: reduce the secretion

## COC(=O)c1c(F)ncn1[C@H](C)c1ccccc1 [Compound 15, methyl R-1-(1-phenethyl)-1H-4-fluoroimidazole-5-carboxylate]
[3]
  LD50: 48.4 mg/kg
KM mice (male)
  ED50: 2 mg/kg
  TI: 24
Male Kunming mice
  Walking time: 68.80 ± 30.10 s
  Latent period: 5.90 ± 0.88 s
  Persistent period: 83.60 ± 29.13 s
mice
  tail bleeding: few: 50%
  tail bleeding: much: 40%
  tail bleeding: none: 10%
  tremor: 70%
mice; post-recovery
  quiet: 100%

## CCOC(=O)c1cccn1[C@H](C)c1ccccc1 [Formula 8]
[1]
  anesthetic effect / activity: decreased anesthetic activity
  duration of action: prolonged duration of action
[2]
  inhibitory effect on the secretion of cortisol and/or corticosterone: little inhibition

## CCOC(=O)c1c(F)ncn1[C@H](C)c1ccccc1 [Compound 16, ethyl R-1-(1-phenethyl)-1H-4-fluoroimidazole-5-carboxylate]
[3]
  LD50: 46.5 mg/kg
KM mice (male)
  ED50: 2 mg/kg
  TI: 23
Male Kunming mice
  Walking time: 98.10 ± 63.96 s
  Latent period: 5.80 ± 0.79 s
  Persistent period: 82.10 ± 20.18 s
mice
  grooming: 10%
  tail bleeding: few: 60%
  tail bleeding: much: 30%
  tail bleeding: none: 10%
  tremor: 70%
mice; post-recovery
  jump: 20%
  quiet: 80%
